Results published in patent US10287298B2, “Nitrogen-containing analogs of salinomycin, synthesis and use against cancer stem cells and malaria” (Centre National de la Recherche Scientifique (CNRS), priority 2014, dated 2019).
pIC50: −log10 of the molar value. Where two headings read alike, the source gives them in different places.

Assays:
[1] = system: HMLER CD24− cells; assay: Cell viability assay (CellTiter-Blue), IC50 assessment; format: cell-based, Human; settings: for pIC50: Homo sapiens, read-out: IC50 CD24−; for activity against CD24 cells compared with salinomycine: comparison of the IC50 results
Experimental: (§1) FIG. 1 represents viability of HMLER CD24− cells (full line) and HMLER CD24+ cells (dotted line) at different concentration of salinomycine (1A), AM5 […] or AM13 (1D).
(§2) Cell viability assay was carried out by plating 1000 cells per well in 96-well plates. NAC (2 mM, A9165 Sigma) or DFO (1 mM) were pretreated 2 hours prior to the compound treatment. CellTiter-Blue® Reagent (Promega; G3582) (20 μl/well) was added after 24, 48, or 72 hours treatment and cells were incubated for 1 hour before recording fluorescence (560(20)Ex/590(10)Em) using a Perkin Elmer Wallac 1420 Victor2 Microplate Reader.

[2] = system: HMLER CD24+ cells; assay: as above; format: cell-based; settings: Homo sapiens, read-out: IC50 CD24+
Experimental: as §1, §2

[3] = system: HMLER CD24− cells; assay: Cell proliferation and formation of mammospheres; format: cell-based, Human
Text: FIG. 2 is a representative phase contrast photomicrographs of mammospheres formed after 11 days in the absence of any added compound (Control) or in the presence of a defined amount of salinomycine, AM5, AM9 or AM13. […] The size of the mammospheres is correlated with progenitor cell proliferation, whereas the number of mammospheres formed after serial passages at clonal density is correlated with the self-renewal capacity of primitive Cancer Stem Cells. […]
FIG. 9 represents images of the third generation of mammospheres formed from individual HMLER CD24low cells treated during 7 days with the indicated drug. The size of the mammospheres is correlated with progenitor cell proliferation capacity, whereas the number of mammospheres formed after serial passages at clonal density is correlated with the self-renewal capacity of primitive Cancer Stem Cells.
AM5, AM9, AM13 and salinomycine were assessed for their capability to inhibit cell proliferation and formation of mammospheres. […]
AM5 and AM23 and salinomycine were assessed for their capability to inhibit cell proliferation and formation of mammospheres.

[4] = HMLER CD24− cells, cell viability
[5] = HMLER CD24+ cells, cell viability

## CCC(C(=O)O)[C@H]1CC[C@H](C)C([C@@H](C)[C@H](O)[C@H](C)C(=O)[C@H](CC)[C@H]2O[C@]3(C=CC(=O)[C@]4(CC[C@@](C)([C@H]5CC[C@](O)(CC)[C@H](C)O5)O4)O3)[C@H](C)C[C@@H]2C)O1 (stereo partly drawn) [AM6]
[1]
  pIC50: 5.21
[2]
  pIC50: 4.89

## CCC(C(=O)OC)[C@H]1CC[C@H](C)C([C@@H](C)[C@H](O)[C@H](C)C(=O)[C@H](CC)[C@H]2O[C@]3(C=C[C@@H](OC(C)=O)[C@]4(CC[C@@](C)([C@H]5CC[C@](O)(CC)[C@H](C)O5)O4)O3)[C@H](C)C[C@@H]2C)O1 (stereo partly drawn) [AM7]
[1]; [4]
  pIC50: 5.14
[2]; [5]
  pIC50: 4.90

## CCC(C(=O)O)[C@H]1CC[C@H](C)C([C@@H](C)[C@H](O)[C@H](C)C(=O)[C@H](CC)[C@H]2O[C@]3(C=C[C@@H](NOCc4ccccc4)[C@]4(CC[C@@](C)([C@H]5CC[C@](O)(CC)[C@H](C)O5)O4)O3)[C@H](C)C[C@@H]2C)O1 (stereo partly drawn) [AM8]
[1]; [4]
  pIC50: 5.99
[1]
  activity against CD24 cells compared with salinomycine: significantly improved activity
[2]; [5]
  pIC50: 5.09

## C#CCN[C@@H]1C=C[C@]2(O[C@H]([C@@H](CC)C(=O)[C@@H](C)[C@@H](O)[C@H](C)C3O[C@@H](C(CC)C(=O)OC)CC[C@@H]3C)[C@@H](C)C[C@H]2C)O[C@@]12CC[C@@](C)([C@H]1CC[C@](O)(CC)[C@H](C)O1)O2 (stereo partly drawn) [AM9, Me-Sal-propargylamine]
[1]; [4]
  pIC50: 4.93
[1]
  activity against CD24 cells compared with salinomycine: lower efficiency than salinomycine
[2]; [5]
  pIC50: 4.66
[3]
  effect against tumorsphere formation / CSC maintenance: ineffective
[3]; at 500 nM
  inhibition of cell proliferation: did not inhibit cell proliferation

## C#CCN[C@@H]1C=C[C@]2(O[C@H]([C@@H](CC)C(=O)[C@@H](C)[C@@H](O)[C@H](C)C3O[C@@H](C(CC)C(=O)OCC#C)CC[C@@H]3C)[C@@H](C)C[C@H]2C)O[C@@]12CC[C@@](C)([C@H]1CC[C@](O)(CC)[C@H](C)O1)O2 (stereo partly drawn) [AM10]
[1]; [4]
  pIC50: 5.00
[1]
  activity against CD24 cells compared with salinomycine: lower efficiency than salinomycine
[2]; [5]
  pIC50: 4.70

## CCC(C(=O)O)[C@H]1CC[C@H](C)C([C@@H](C)[C@H](O)[C@H](C)C(=O)[C@H](CC)[C@H]2O[C@]3(C=C[C@@H](NCc4ccccc4)[C@]4(CC[C@@](C)([C@H]5CC[C@](O)(CC)[C@H](C)O5)O4)O3)[C@H](C)C[C@@H]2C)O1 (stereo partly drawn) [AM11]
[1]; [4]
  pIC50: 6.10
[1]
  activity against CD24 cells compared with salinomycine: significantly improved activity
[2]; [5]
  pIC50: 5.17

## CCCCCCN[C@@H]1C=C[C@]2(O[C@H]([C@@H](CC)C(=O)[C@@H](C)[C@@H](O)[C@H](C)C3O[C@@H](C(CC)C(=O)O)CC[C@@H]3C)[C@@H](C)C[C@H]2C)O[C@@]12CC[C@@](C)([C@H]1CC[C@](O)(CC)[C@H](C)O1)O2 (stereo partly drawn) [AM12]
[1]; [4]
  pIC50: 5.75
[1]
  activity against CD24 cells compared with salinomycine: significantly improved activity
[2]; [5]
  pIC50: 5.16

## CCCCCCCCCCCCN[C@@H]1C=C[C@]2(O[C@H]([C@@H](CC)C(=O)[C@@H](C)[C@@H](O)[C@H](C)C3O[C@@H](C(CC)C(=O)O)CC[C@@H]3C)[C@@H](C)C[C@H]2C)O[C@@]12CC[C@@](C)([C@H]1CC[C@](O)(CC)[C@H](C)O1)O2 (stereo partly drawn) [AM13, Sal-Dodecylamine]
[1]; [4]
  pIC50: 7.14
[1]
  activity against CD24 cells compared with salinomycine: significantly improved activity
[2]; [5]
  pIC50: 5.50
[3]; at 30 nM
  inhibition of cell proliferation, efficacy in comparison with salinomycine: ten-fold improved efficacy
[3]; mammospheres after 11 days, low nanomolar concentrations
  number and size of mammosphere: reduced the number and the size of mammosphere

## C#CCCCN[C@@H]1C=C[C@]2(O[C@H]([C@@H](CC)C(=O)[C@@H](C)[C@@H](O)[C@H](C)C3O[C@@H](C(CC)C(=O)O)CC[C@@H]3C)[C@@H](C)C[C@H]2C)O[C@@]12CC[C@@](C)([C@H]1CC[C@](O)(CC)[C@H](C)O1)O2 (stereo partly drawn) [AM16]
[1]; [4]
  pIC50: 6.52
[2]; [5]
  pIC50: 5.93

## C#CCN[C@H]1C=C[C@]2(O[C@H]([C@@H](CC)C(=O)[C@@H](C)[C@@H](O)[C@H](C)C3O[C@@H](C(CC)C(=O)O)CC[C@@H]3C)[C@@H](C)C[C@H]2C)O[C@@]12CC[C@@](C)([C@H]1CC[C@](O)(CC)[C@H](C)O1)O2 (stereo partly drawn) [AM17]
[1]; [4]
  pIC50: 7.00
[2]; [5]
  pIC50: 5.70

## CCC(C(=O)NO)[C@H]1CC[C@H](C)C([C@@H](C)[C@H](O)[C@H](C)C(=O)[C@H](CC)[C@H]2O[C@]3(C=C/C(=N\O)[C@]4(CC[C@@](C)([C@H]5CC[C@](O)(CC)[C@H](C)O5)O4)O3)[C@H](C)C[C@@H]2C)O1 (stereo partly drawn) [AM18]
[1]; [4]
  pIC50: 7.00
[2]; [5]
  pIC50: 5.60

## CCCN[C@@H]1C=C[C@]2(O[C@H]([C@@H](CC)C(=O)[C@@H](C)[C@@H](O)[C@H](C)C3O[C@@H](C(CC)C(=O)O)CC[C@@H]3C)[C@@H](C)C[C@H]2C)O[C@@]12CC[C@@](C)([C@H]1CC[C@](O)(CC)[C@H](C)O1)O2 (stereo partly drawn) [AM21]
[1]; [4]
  pIC50: 6.47
[2]; [5]
  pIC50: 5.19

## C=CCN[C@@H]1C=C[C@]2(O[C@H]([C@@H](CC)C(=O)[C@@H](C)[C@@H](O)[C@H](C)C3O[C@@H](C(CC)C(=O)O)CC[C@@H]3C)[C@@H](C)C[C@H]2C)O[C@@]12CC[C@@](C)([C@H]1CC[C@](O)(CC)[C@H](C)O1)O2 (stereo partly drawn) [AM22]
[1]; [4]
  pIC50: 6.52
[2]; [5]
  pIC50: 5.82

## CCC(C(=O)O)[C@H]1CC[C@H](C)C([C@@H](C)[C@H](O)[C@H](C)C(=O)[C@H](CC)[C@H]2O[C@]3(C=C[C@@H](NC4CCC4)[C@]4(CC[C@@](C)([C@H]5CC[C@](O)(CC)[C@H](C)O5)O4)O3)[C@H](C)C[C@@H]2C)O1 (stereo partly drawn) [AM24]
[1]; [4]
  pIC50: 6.97
[2]; [5]
  pIC50: 5.85

## CCC(C(=O)O)[C@H]1CC[C@H](C)C([C@@H](C)[C@H](O)[C@H](C)C(=O)[C@H](CC)[C@H]2O[C@]3(C=C[C@@H](NC4CCCC4)[C@]4(CC[C@@](C)([C@H]5CC[C@](O)(CC)[C@H](C)O5)O4)O3)[C@H](C)C[C@@H]2C)O1 (stereo partly drawn) [AM25]
[1]; [4]
  pIC50: 6.97
[2]; [5]
  pIC50: 5.87

## CCC(C(=O)O)[C@H]1CC[C@H](C)C([C@@H](C)[C@H](O)[C@H](C)C(=O)[C@H](CC)[C@H]2O[C@]3(CC[C@@H](NCC(C)C)[C@]4(CC[C@@](C)([C@H]5CC[C@](O)(CC)[C@H](C)O5)O4)O3)[C@H](C)C[C@@H]2C)O1 (stereo partly drawn) [AM26]
[1]; [4]
  pIC50: 5.94
[2]; [5]
  pIC50: 5.00

## CCC(C(=O)NO)[C@H]1CC[C@H](C)C([C@@H](C)[C@H](O)[C@H](C)C(=O)[C@H](CC)[C@H]2O[C@]3(C=C[C@@H](NC4CC4)[C@]4(CC[C@@](C)([C@H]5CC[C@](O)(CC)[C@H](C)O5)O4)O3)[C@H](C)C[C@@H]2C)O1 (stereo partly drawn) [AM28]
[1]; [4]
  pIC50: 5.19
[2]; [5]
  pIC50: 5.23

## CC(=O)O[C@H]1C(=O)[C@@]2(C)[C@H]([C@H](OC(=O)c3ccccc3)[C@]3(O)C[C@H](OC(=O)[C@H](O)[C@@H](NC(=O)c4ccccc4)c4ccccc4)C(C)=C1C3(C)C)[C@]1(OC(C)=O)CO[C@@H]1C[C@@H]2O [paclitaxel, reference compound]
[3]
  effect against tumorsphere formation / CSC maintenance: poorly effective
